Activity calls are given as the source filed them. How the calls were made is not given here.
System: CCRIS mutagenicity, Ames/micronucleus/aberration tests
Experiment: CCRIS mutagenicity studies
[1] = Test System: AMES SALMONELLA TYPHIMURIUM, Strain/Indicator: TA97, Metabolic Activation: NONE, Method: PREINCUBATION
[2] = Test System: AMES SALMONELLA TYPHIMURIUM, Strain/Indicator: TA102, Metabolic Activation: NONE, Method: PREINCUBATION

Measured: mutagenic call

O
active: Test System: MOUSE LYMPHOMA, Strain/Indicator: L5178Y (TK+/TK-), Metabolic Activation: RAT, LIVER, S-9, AROCLOR 1254, Method: SUSPENSION/PLATE active; positive
inactive: End Point: In vitro chromosomal aberrations, Test System: D824 human dental pulp cells, Metabolic Activation: None inactive; negative | End Point: In vitro chromosomal aberrations, Test System: D824 human dental pulp cells, Metabolic Activation: Rat, Liver, Postmitochondrial supernate (5%) inactive; negative | Test System: AMES SALMONELLA TYPHIMURIUM, Strain/Indicator: TA97, Metabolic Activation: HAMSTER, LIVER, S-9, AROCLOR 1254 (10 OR 30%), Method: PREINCUBATION inactive; negative | [1] inactive; negative | Test System: AMES SALMONELLA TYPHIMURIUM, Strain/Indicator: TA97, Metabolic Activation: RAT, LIVER, S-9, AROCLOR 1254 (10 OR 30%), Method: PREINCUBATION inactive; negative | Test System: AMES SALMONELLA TYPHIMURIUM, Strain/Indicator: TA97, Metabolic Activation: RAT, LIVER, S-9, AROCLOR 1254, Method: PREINCUBATION inactive; negative | Test System: AMES SALMONELLA TYPHIMURIUM, Strain/Indicator: TA98, Metabolic Activation: HAMSTER, LIVER, S-9, AROCLOR 1254 (10 OR 30%), Method: PREINCUBATION inactive; negative | Test System: AMES SALMONELLA TYPHIMURIUM, Strain/Indicator: TA98, Metabolic Activation: NONE, Method: PREINCUBATION inactive; negative | Test System: AMES SALMONELLA TYPHIMURIUM, Strain/Indicator: TA98, Metabolic Activation: RAT LIVER S-9, PHENOBARBITAL AND BETA-NAPHTHOFLAVONE, Method: PREINCUBATION inactive; negative | Test System: AMES SALMONELLA TYPHIMURIUM, Strain/Indicator: TA98, Metabolic Activation: RAT, LIVER, S-9, AROCLOR 1254 (10 OR 30%), Method: PREINCUBATION inactive; negative | Test System: AMES SALMONELLA TYPHIMURIUM, Strain/Indicator: TA98, Metabolic Activation: RAT, LIVER, S-9, PHENOBARBITAL AND BETA-NAPHTHOFLAVONE, Method: PREINCUBATION inactive; negative | Test System: AMES SALMONELLA TYPHIMURIUM, Strain/Indicator: TA100, Metabolic Activation: HAMSTER, LIVER, S-9, AROCLOR 1254 (10 OR 30%), Method: PREINCUBATION inactive; negative | Test System: AMES SALMONELLA TYPHIMURIUM, Strain/Indicator: TA100, Metabolic Activation: NONE, Method: PREINCUBATION inactive; negative | Test System: AMES SALMONELLA TYPHIMURIUM, Strain/Indicator: TA100, Metabolic Activation: RAT LIVER S-9, PHENOBARBITAL AND BETA-NAPHTHOFLAVONE, Method: PREINCUBATION inactive; negative | Test System: AMES SALMONELLA TYPHIMURIUM, Strain/Indicator: TA100, Metabolic Activation: RAT, LIVER, S-9, AROCLOR 1254 (10 OR 30%), Method: PREINCUBATION inactive; negative | Test System: AMES SALMONELLA TYPHIMURIUM, Strain/Indicator: TA100, Metabolic Activation: RAT, LIVER, S-9, PHENOBARBITAL AND BETA-NAPHTHOFLAVONE, Method: PREINCUBATION inactive; negative | [2] inactive; negative | Test System: AMES SALMONELLA TYPHIMURIUM, Strain/Indicator: TA102, Metabolic Activation: RAT, LIVER, S-9, AROCLOR 1254, Method: PREINCUBATION inactive; negative | Test System: AMES SALMONELLA TYPHIMURIUM, Strain/Indicator: TA104, Metabolic Activation: NONE, Method: PREINCUBATION inactive; negative | Test System: AMES SALMONELLA TYPHIMURIUM, Strain/Indicator: TA104, Metabolic Activation: RAT, LIVER, S-9, SODIUM PHENOBARBITAL AND 5,6-BENZOFLAVONE, Method: PREINCUBATION inactive; negative | Test System: AMES SALMONELLA TYPHIMURIUM, Strain/Indicator: TA1535, Metabolic Activation: HAMSTER, LIVER, S-9, AROCLOR 1254 (10 OR 30%), Method: PREINCUBATION inactive; negative | Test System: AMES SALMONELLA TYPHIMURIUM, Strain/Indicator: TA1535, Metabolic Activation: NONE, Method: PREINCUBATION inactive; negative | Test System: AMES SALMONELLA TYPHIMURIUM, Strain/Indicator: TA1535, Metabolic Activation: RAT LIVER S-9, PHENOBARBITAL AND BETA-NAPHTHOFLAVONE, Method: PREINCUBATION inactive; negative | Test System: AMES SALMONELLA TYPHIMURIUM, Strain/Indicator: TA1535, Metabolic Activation: RAT, LIVER, S-9, AROCLOR 1254 (10 OR 30%), Method: PREINCUBATION inactive; negative | Test System: AMES SALMONELLA TYPHIMURIUM, Strain/Indicator: TA1535, Metabolic Activation: RAT, LIVER, S-9, PHENOBARBITAL AND BETA-NAPHTHOFLAVONE, Method: PREINCUBATION inactive; negative | Test System: AMES SALMONELLA TYPHIMURIUM, Strain/Indicator: TA1537, Metabolic Activation: HAMSTER, LIVER, S-9, AROCLOR 1254 (30%), Method: PREINCUBATION inactive; negative | Test System: AMES SALMONELLA TYPHIMURIUM, Strain/Indicator: TA1537, Metabolic Activation: NONE, Method: PREINCUBATION inactive; negative | Test System: AMES SALMONELLA TYPHIMURIUM, Strain/Indicator: TA1537, Metabolic Activation: RAT LIVER S-9, PHENOBARBITAL AND BETA-NAPHTHOFLAVONE, Method: PREINCUBATION inactive; negative | Test System: AMES SALMONELLA TYPHIMURIUM, Strain/Indicator: TA1537, Metabolic Activation: RAT, LIVER, S-9, AROCLOR 1254 (30%), Method: PREINCUBATION inactive; negative | Test System: AMES SALMONELLA TYPHIMURIUM, Strain/Indicator: TA1537, Metabolic Activation: RAT, LIVER, S-9, PHENOBARBITAL AND BETA-NAPHTHOFLAVONE, Method: PREINCUBATION inactive; negative | Test System: AMES SALMONELLA TYPHIMURIUM, Strain/Indicator: TA1538, Metabolic Activation: NONE, Method: PREINCUBATION inactive; negative | Test System: AMES SALMONELLA TYPHIMURIUM, Strain/Indicator: TA1538, Metabolic Activation: RAT LIVER S-9, PHENOBARBITAL AND BETA-NAPHTHOFLAVONE, Method: PREINCUBATION inactive; negative | Test System: E. COLI, Strain/Indicator: WP2UVRA/PKM101, Metabolic Activation: NONE, Method: PREINCUBATION inactive; negative | Test System: E. COLI, Strain/Indicator: WP2UVRA/PKM101, Metabolic Activation: RAT, LIVER, S-9, SODIUM PHENOBARBITAL AND 5,6-BENZOFLAVONE, Method: PREINCUBATION inactive; negative | Test System: E. COLI, Strain/Indicator: WP2UVRA, Metabolic Activation: NONE, Method: PREINCUBATION inactive; negative | Test System: E. COLI, Strain/Indicator: WP2UVRA, Metabolic Activation: RAT, LIVER, S-9, SODIUM PHENOBARBITAL AND 5,6-BENZOFLAVONE, Method: PREINCUBATION inactive; negative | Test System: E.COLI, Strain/Indicator: WP2UVRA, Metabolic Activation: NONE, Method: PREINCUBATION inactive; negative | Test System: E.COLI, Strain/Indicator: WP2UVRA, Metabolic Activation: RAT LIVER S-9, PHENOBARBITAL AND BETA-NAPHTHOFLAVONE, Method: PREINCUBATION inactive; negative | Test System: MOUSE LYMPHOMA, Strain/Indicator: L5178Y (TK+/TK-), Metabolic Activation: NONE, Method: SUSPENSION/PLATE inactive; negative

C1CC2(CCO1)CO2
active: Test System: AMES SALMONELLA TYPHIMURIUM, Strain/Indicator: TA100, Metabolic Activation: STANDARD PLATE active; positive

CS(=O)(=O)OCCCNCCCOS(C)(=O)=O
active: Test System: AMES SALMONELLA TYPHIMURIUM, Strain/Indicator: TA1537, Metabolic Activation: S-9, Method: STANDARD PLATE active; positive | Test System: E. COLI, Strain/Indicator: WP2 (HCR), Metabolic Activation: S-9, Method: STANDARD PLATE active; positive
inactive: Test System: AMES SALMONELLA TYPHIMURIUM, Strain/Indicator: TA98, Metabolic Activation: S-9, Method: STANDARD PLATE inactive; negative | Test System: AMES SALMONELLA TYPHIMURIUM, Strain/Indicator: TA100, Metabolic Activation: S-9, Method: STANDARD PLATE inactive; negative | Test System: AMES SALMONELLA TYPHIMURIUM, Strain/Indicator: TA102, Metabolic Activation: S-9, Method: STANDARD PLATE inactive; negative

CC(=O)CC(O)(CC(=O)O)C(=O)O (centres undefined)
inactive: [1] inactive; negative | Test System: AMES SALMONELLA TYPHIMURIUM, Strain/Indicator: TA97, Metabolic Activation: S-9, Method: PREINCUBATION inactive; negative | [2] inactive; negative | Test System: AMES SALMONELLA TYPHIMURIUM, Strain/Indicator: TA102, Metabolic Activation: S-9, Method: PREINCUBATION inactive; negative

COP(N)(=O)SC (centres undefined)
inactive: Test System: Ames Salmonella typhimurium, Strain/Indicator: TA100, Metabolic Activation: None, Method: Preincubation inactive; negative | Test System: Ames Salmonella typhimurium, Strain/Indicator: TA100, Metabolic Activation: Rat, Liver, S-9 (10%), Aroclor 1254, Method: Preincubation inactive; negative
active: Test System: Ames Salmonella typhimurium, Strain/Indicator: TA98, Metabolic Activation: None, Method: Preincubation active; positive | Test System: Ames Salmonella typhimurium, Strain/Indicator: TA98, Metabolic Activation: Rat, Liver, S-9 (10%), Aroclor 1254, Method: Preincubation active; positive
